According to US11999794B2, “Human mesothelin chimeric antigen receptors and uses thereof” (Novartis AG, priority 2013, dated 2024):

Tested on: mesoCAR TILs against EMMESO tumor cells
Experiment: Ex vivo killing and cytokine release assays with blocking agents
Type: cell-based, human
Details: blocking agent added ex vivo
Procedure: T cell Effector Assays. Effector T cells were cocultured with firefly luciferase expressing tumor cells at different ratios for a specified period time. At the end of the co-culture incubation period, supernatant was saved for IFN levels by ELISA (Biolegend #430106), wells were washed, and remaining tumor cells were lysed with 1× cell lysis buffer for 30 minutes. The luciferase activity in the lysates was analyzed using the Luciferase Assay System on a GloMax Multi Detection System (Promega.) Results are reported as percent killing based on luciferase activity in wells with tumor, but no T cells. (% killing=100-((RLU from well with effector and target cell coculture)/(RLU from well with target cells)×100)). Effector-to-target ratios represent total T cells per target cell.
Given these expression data, the potential functional importance of specific inhibitory pathways in mesoCAR TILs was studied by introducing available blocking agents during the ex vivo killing and cytokine release assays. […] The relatively high dose of 10 ug/ml anti-PDL1 antibody was based on previously published investigations on cancer immunotherapy.

With O.O.O.O.O.O.O.O.O.O=C([O-])[C@@H]1[O][Sb]2([O-])([O][Sb]34([OH])[O][C@H]([C@H](O)CO)[C@H]([O]3)[C@H](C(=O)[O-])[O]4)[O][C@H]([C@H](O)CO)[C@@H]1[O]2.[Na+].[Na+].[Na+] [SSG, sodium stibogluconate] the “killing ability of cryo mesoCAR T cells” value was “slightly inhibited”, the “killing activity of mesoCAR TILs” value was “significantly increased” and the “tumor-induced IFN secretion of mesoCAR TILs” value was “significantly increasing”.
